Test results as given in the supplement of paper PMC6045584.
± gives the standard deviation of the averaged measurements.

Compound: O=C(O)C1(C(=O)O)CCC1.[NH2-].[NH2-].[Pt+2] [CARBOPLATIN]
Test: surviving fraction relative to DMSO-only wells; higher = less growth inhibition
Conditions: 1000 nM; exposure time: 5 days
How it was run: (§1)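 Inhibitors were tested at 0.5, 1, 5, 10, 50, 100, 500 and 1000 nM, applied continuously for five days beginning 24 hours after log-phase tumour cells were seeded at 250–500 per well in 384-well plates. CellTiter-Glo luminescence served as the viability measure, expressed as surviving fraction against the median of DMSO-only wells. Each line, screened three times, was kept only with replicate Pearson r >0.7 and median Z' >0.3.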

Test System	surviving fraction
VCAP PROSTATE	1.04 ± 0.18

Compound: COc1cc2ncnc(Nc3ccc(F)c(Cl)c3)c2cc1OCCCN1CCOCC1 [GEFITINIB]
Test: as above
Conditions: 0.5 nM; exposure time: 5 days
How it was run: as §1

Test System	surviving fraction
CADOES1 SOFT TISSUE	1.01 ± 0.045
SAOS2 BONE	1.11 ± 0.021
MDAMB436 BREAST	1.02 ± 0.091
KPD BONE	0.994 ± 0.06
SYO1 SYNOVIAL	1.05 ± 0.068
BT20 BREAST	1.14 ± 0.02
SUM44 BREAST	1.27 ± 0.43
CAL120 BREAST	0.964 ± 0.046
CHLA90 AUTONOMIC GANGLIA	0.939 ± 0.022
HCC1806 BREAST	1.02 ± 0.11
HCC78 LUNG	1.03 ± 0.2
MFM223 BREAST	1.49 ± 0.61
SG43 HEADNECK	1.36 ± 0.4
HOS BONE	1.01 ± 0.02
MDAMB468 BREAST	1.11 ± 0.097
SG27 HEADNECK	1.11 ± 0.041

Test System	surviving fraction
ZR751 BREAST	1.22 ± 0.054
HSSYII SYNOVIAL	1.04 ± 0.026
MG63 BONE	1.02 ± 0.024
HS57T BREAST	0.973 ± 0.033
SUM159 BREAST	1.1 ± 0.026
HCC1395 BREAST	1.07 ± 0.057
SUM149.B1*.S BREAST	1.11 ± 0.044
MDAMB453 BREAST	1.09 ± 0.045
SCC90 HEADNECK	1.15 ± 0.1
HMLE3 BREAST	1.11 ± 0.075
HCC70 BREAST	1.03 ± 0.13
LNCAP PROSTATE	1.1 ± 0.22
HCT15 LARGE INTESTINE	1.05 ± 0.033
MHM BONE	1.01 ± 0.046
VCAP PROSTATE	1.13 ± 0.089

Same assay, conditions: 1 nM; exposure time: 5 days

Test System	surviving fraction
CADOES1 SOFT TISSUE	0.9 ± 0.058
SAOS2 BONE	1.04 ± 0.065
MDAMB436 BREAST	1.01 ± 0.06
93VU HEADNECK	1.07 ± 0.075
KPD BONE	1.01 ± 0.04
SYO1 SYNOVIAL	0.97 ± 0.049
BT20 BREAST	1.19 ± 0.063
CAL120 BREAST	0.965 ± 0.031
CHLA90 AUTONOMIC GANGLIA	0.905 ± 0.089
HCC1806 BREAST	1.08 ± 0.11
HCC78 LUNG	0.938 ± 0.12
MFM223 BREAST	1.42 ± 0.47
SG43 HEADNECK	1.21 ± 0.45
HOS BONE	1.034 ± 0.0087
MDAMB468 BREAST	1.08 ± 0.062
SG27 HEADNECK	1.1 ± 0.074

Test System	surviving fraction
ZR751 BREAST	1 ± 0.1
HSSYII SYNOVIAL	0.9723 ± 0.0083
MG63 BONE	0.998 ± 0.013
HS57T BREAST	0.994 ± 0.088
SUM159 BREAST	1.1 ± 0.034
HCC1395 BREAST	1.07 ± 0.035
SUM149.B1*.S BREAST	1.1 ± 0.027
MDAMB453 BREAST	1.07 ± 0.078
SCC90 HEADNECK	1.06 ± 0.15
HMLE3 BREAST	1.03 ± 0.016
HCC70 BREAST	0.976 ± 0.048
LNCAP PROSTATE	0.915 ± 0.067
HCT15 LARGE INTESTINE	1.04 ± 0.017
MHM BONE	1.02 ± 0.038
VCAP PROSTATE	1.11 ± 0.14

Same assay, conditions: 5 nM; exposure time: 5 days

Test System	surviving fraction
CADOES1 SOFT TISSUE	0.852 ± 0.063
SAOS2 BONE	1.21 ± 0.035
MDAMB436 BREAST	0.994 ± 0.026
93VU HEADNECK	1.08 ± 0.027
KPD BONE	0.84 ± 0.36
SYO1 SYNOVIAL	0.982 ± 0.068
BT20 BREAST	1.13 ± 0.11
SUM44 BREAST	1.2 ± 0.32
CAL120 BREAST	0.968 ± 0.025
CHLA90 AUTONOMIC GANGLIA	0.873 ± 0.052
HCC1806 BREAST	1.19 ± 0.1
HCC78 LUNG	1.01 ± 0.1
MFM223 BREAST	1.51 ± 0.61
SG43 HEADNECK	0.814 ± 0.26
HOS BONE	1.041 ± 0.01
MDAMB468 BREAST	1.14 ± 0.087

Test System	surviving fraction
SG27 HEADNECK	1.03 ± 0.037
ZR751 BREAST	1.13 ± 0.067
HSSYII SYNOVIAL	1.05 ± 0.022
MG63 BONE	1.09 ± 0.041
HS57T BREAST	1.01 ± 0.024
SUM159 BREAST	1.09 ± 0.02
HCC1395 BREAST	1.18 ± 0.12
SUM149.B1*.S BREAST	1.11 ± 0.021
MDAMB453 BREAST	1.19 ± 0.078
SCC90 HEADNECK	1.03 ± 0.023
HMLE3 BREAST	1.07 ± 0.016
HCC70 BREAST	1.15 ± 0.14
LNCAP PROSTATE	0.9827 ± 0.0059
HCT15 LARGE INTESTINE	0.982 ± 0.025
MHM BONE	1.06 ± 0.051
VCAP PROSTATE	1.13 ± 0.12

Same assay, conditions: 10 nM; exposure time: 5 days

Test System	surviving fraction
CADOES1 SOFT TISSUE	0.906 ± 0.13
SAOS2 BONE	1.09 ± 0.05
MDAMB436 BREAST	1.09 ± 0.098
93VU HEADNECK	1.04 ± 0.055
KPD BONE	0.81 ± 0.34
SYO1 SYNOVIAL	0.98 ± 0.012
BT20 BREAST	1.15 ± 0.043
SUM44 BREAST	1.19 ± 0.23
CAL120 BREAST	0.956 ± 0.039
CHLA90 AUTONOMIC GANGLIA	0.848 ± 0.056
HCC1806 BREAST	1.2 ± 0.11
HCC78 LUNG	0.994 ± 0.12
MFM223 BREAST	1.5 ± 0.53
SG43 HEADNECK	0.825 ± 0.2
HOS BONE	1.04 ± 0.032
MDAMB468 BREAST	1.11 ± 0.02

Test System	surviving fraction
SG27 HEADNECK	1.16 ± 0.12
ZR751 BREAST	0.983 ± 0.046
HSSYII SYNOVIAL	1.03 ± 0.047
MG63 BONE	1.08 ± 0.038
HS57T BREAST	1.02 ± 0.05
SUM159 BREAST	1.06 ± 0.025
HCC1395 BREAST	1.22 ± 0.17
SUM149.B1*.S BREAST	1.1 ± 0.023
MDAMB453 BREAST	1.1 ± 0.024
SCC90 HEADNECK	0.85 ± 0.051
HMLE3 BREAST	1.08 ± 0.031
HCC70 BREAST	1.02 ± 0.075
LNCAP PROSTATE	0.998 ± 0.043
HCT15 LARGE INTESTINE	1.04 ± 0.054
MHM BONE	1.05 ± 0.051
VCAP PROSTATE	1.15 ± 0.14
